Data reported in patent US4722892A, “Monoclonal antibodies against metal chelates” (priority 1984, dated 1988).
Read-outs that look alike come from different tables or passages of the source.

Assays:
[1] = tested on: monoclonal antibody CHB235; assay: Association constants of metal chelates with monoclonal antibody CHB235 by equilibrium dialysis (method of Eisen), displacement of In(III)-(L)-aminobenzyl EDTA; assay type: binding, BALB/c mice; conditions: dialysis 24h, 37°, pH 7
Text: (§1) Table I below sets forth the association constants of the two monoclonal antibodies described in Example II for a number of chelates. In Part A, the relative affinities of the antibodies for aminobenzyl EDTA complexes of In(III) and other ions are shown. In Part B, the binding constants of the antibodies for In(III) complexes with other chelating agents are shown. The metals selected for comparison were trivalent ions similar to In(III) and divalent ions whose EDTA complexes form structures similar to that of an In-EDTA complex. The binding constants for the chelates were determined by the method of Eisen, Meth. Med. Res., 10, 106 (1964) by dialysis of the antibody and metal chelates to near equilibrium (24h) at 37° in 0.05M 2-hydroxyethyl-piperazine-ethanesulfonate, 0.lM NaCl, 0.1% NaN3 and 0.1% bovine serum albumin at pH 7. The concentration of antibody binding sites inside the dialysis bag was 10^-7 M, and the concentration of free In(III)-(L)-aminobenzyl EDTA was in the same range.
(§2) Known amounts of another chelate were added to the solution after equilibrium until roughly half of the bound indium chelate had been displaced at equilibrium.

[2] = tested on: monoclonal antibody CHA255; assay: Association constants of metal chelates with monoclonal antibody CHA255 by equilibrium dialysis (method of Eisen), displacement of In(III)-(L)-aminobenzyl EDTA; assay type: binding, BALB/c mice; conditions: for Kd: dialysis 24h, 37°, pH 7
Text: as §1, §2

[3] = metal-EDTA chelate (not the L-Benzyl-EDTA chelate); from Sillen and Martell / Martell and Smith; cited from earlier work
[4] = Table 1 Part B, indium chelates with different chelators, read-out: K A^CHA235 (antibody binding constant for each indium chelate) (converted)
[5] = Table 1 Part B, indium chelates with different chelators, read-out: K A^CHA255 (antibody binding constant for each indium chelate) (converted)

Row | Molecule | Kd [1, 4] [nM] | Kd [2, 5] [nM] | log K S^EDTA(M) (logarithm of the stability constant for each metal-EDTA chelate) [3] | Kd ([1]; Table 1 Part A, coefficient of variation on next line, read-out: K A^CHB235 (antibody binding constant for metal-L-Benzyl-EDTA chelate) (converted)) [nM] | Kd ([2]; Table 1 Part A, coefficient of variation in parentheses, read-out: K A^CHA255 (antibody binding constant for metal-L-Benzyl-EDTA chelate) (converted)) [nM] | affinity (KA) ([2]; summary statement, antibody not named)
1 | O=C(O)CN(CC(=O)O)CC(Cc1ccccc1)N(CC(=O)O)CC(=O)O [D-Benzyl-EDTA] | 27.8 | 15.9 |  |  |  | 
2 | O=C(O)CN(CCN(CC(=O)O)CC(=O)O)CC(=O)O [EDTA] | 7.69 | 5.88 |  |  |  | 
3 | O=C(O)CN(CCO)CCN(CC(=O)O)CC(=O)O [HED3A] | 25 | 23.8 |  |  |  | 
4 | In(III)-(L)-aminobenzyl EDTA | 9.09 | 0.25 | 25.0 | 9.09 | 0.25 | greater than 10^9 M^-1
